Experimental data as given in paper PMC10489938, “Developing an Amide-Spacered Triterpenoid Rhodamine Hybrid of Nano-Molar Cytotoxicity Combined with Excellent Tumor Cell/Non-Tumor Cell Selectivity” (Molecules, 2023).
Where a name gives a salt, the structure may show the parent alone.

Key:
[1] = system: A375 (melanoma); assay: SRB cytotoxicity assay, A375; format: cell-based, human; settings: Homo sapiens, A-375; Table 2; SRB assay, 72 h of treatment; cut-off 30 μM; read-out: Cytotoxicity (EC50) A375
Protocol: (§1) Sulforhodamine (SRB) assays were performed to evaluate the cytotoxicity of the compounds. First, the cytotoxicity of the different rhodamines was determined; the results of these assays are compiled in Table 1 and Table 2 and depicted in Figure 1.
(§2) Experimental equipment: as previously described biological assays were performed as previously reported employing cell lines obtained from the Department of Oncology [Martin-Luther-University Halle Wittenberg; they were bought from ATCC [2, 4, 7]]. Rhodamine 101 B, as well as asiatic acid, were obtained from local vendors and used as received.
(§3) For the SRB assay and staining experiments: as previously described.

[2] = system: HT29 (colorectal carcinoma); assay: SRB cytotoxicity assay, HT29; format: cell-based, human; settings: Homo sapiens, HT-29; Table 2; SRB assay, 72 h of treatment; cut-off 30 μM; read-out: Cytotoxicity (EC50) HT29
Protocol: as §1, §2, §3

[3] = system: MCF7 (breast adenocarcinoma); assay: SRB cytotoxicity assay, MCF7; format: cell-based, human; settings: Homo sapiens, MCF7; Table 2; SRB assay, 72 h of treatment; cut-off 30 μM; read-out: Cytotoxicity (EC50) MCF7
Protocol: as §1, §2, §3

[4] = system: A2780 (ovarian carcinoma); assay: SRB cytotoxicity assay, A2780; format: cell-based, human; settings: Homo sapiens, A2780; Table 2; SRB assay, 72 h of treatment; cut-off 30 μM; read-out: Cytotoxicity (EC50) A2780
Protocol: as §1, §2, §3

[5] = system: HeLa (cervical adenocarcinoma); assay: SRB cytotoxicity assay, HeLa; format: cell-based, human; settings: Homo sapiens, HeLa; Table 2; SRB assay, 72 h of treatment; cut-off 30 μM; read-out: Cytotoxicity (EC50) HeLa
Protocol: as §1, §2, §3

[6] = SRB cytotoxicity assay, NIH 3T3; format: cell-based, murine; settings: mouse, NIH 3T3 non-malignant fibroblasts, Table 2, 72 h of treatment, cut-off 30 μM
Protocol: as §1, §2, §3

Row | SMILES | melting point | EC50 [1] | EC50 [2] | EC50 [3] | EC50 [4] | EC50 [5] | EC50 at 72 h [6]
1 | CCN(CC)c1ccc2c(-c3ccccc3C(=O)N3CCCN(C(=O)[C@]45CC[C@@H](C)[C@H](C)[C@H]4C4=CC[C@@H]6[C@@]7(C)C[C@@H](OC(C)=O)[C@H](OC(C)=O)[C@@](C)(COC(C)=O)C7CC[C@@]6(C)[C@]4(C)CC5)CCC3)c3ccc(=[N+](CC)CC)cc-3oc2c1 (stereo partly drawn) [compound 17, (2α,3β,4α)-9-[2-[{4-(2α,3β,23-Tris(Acetyloxy)-urs-12-en-28-oyl)-1,5-Diazocan-1-Yl]Carbonyl}Phenyl]-3,6-Bis(Diethylamino)-Xanthylium Chloride] | – | 0.03 ± 0.01 µM | 0.03 ± 0.01 µM | 0.025 ± 0.02 µM | 0.007 ± 0.002 µM | 0.06 ± 0.01 µM | 0.45 ± 0.02 µM
2 | CCCN(CCC)c1ccc2c(-c3ccccc3C(=O)N3CCCN(C(=O)[C@]45CC[C@@H](C)[C@H](C)[C@H]4C4=CC[C@@H]6[C@@]7(C)C[C@@H](OC(C)=O)[C@H](OC(C)=O)[C@@](C)(COC(C)=O)C7CC[C@@]6(C)[C@]4(C)CC5)CCC3)c3ccc(=[N+](CCC)CCC)cc-3oc2c1 (stereo partly drawn) [compound 18, (2α,3β,4α)-9-[2-[{4-(2α,3β,23-Tris(Acetyloxy)-urs-12-en-28-oyl)-1,5-Diazocan-1-Yl]Carbonyl}Phenyl]-3,6-Bis(Dipropylamino)-Xanthylium Chloride] | – | 0.0074 ± 0.0009 µM | 0.012 ± 0.004 µM | 0.017 ± 0.002 µM | 0.0019 ± 0.0002 µM | 0.07 ± 0.02 µM | 0.36 ± 0.05 µM
3 | CCCCN(CCCC)c1ccc2c(-c3ccccc3C(=O)N3CCCN(C(=O)[C@]45CC[C@@H](C)[C@H](C)[C@H]4C4=CC[C@@H]6[C@@]7(C)C[C@@H](OC(C)=O)[C@H](OC(C)=O)[C@@](C)(COC(C)=O)C7CC[C@@]6(C)[C@]4(C)CC5)CCC3)c3ccc(=[N+](CCCC)CCCC)cc-3oc2c1 (stereo partly drawn) [compound 19, (2α,3β,4α)-9-[2-[{4-(2α,3β,23-Tris(Acetyloxy)-urs-12-en-28-oyl)-1,5-Diazocan-1-Yl]Carbonyl}Phenyl]-3,6-Bis(Dibutylamino)-Xanthylium Chloride] | – | 0.03 ± 0.01 µM | 0.03 ± 0.01 µM | 0.04 ± 0.005 µM | 0.006 ± 0.002 µM | 0.17 ± 0.08 µM | 0.24 ± 0.08 µM

Continued, in another order:

Row | melting point | SMILES | EC50 [1] | EC50 [2] | EC50 [3] | EC50 [4] | EC50 [5] | EC50 at 72 h [6]
4 | 248 to 250 °C | CC(=O)OC[C@@]1(C)C2CC[C@]3(C)[C@H](CC=C4[C@@H]5[C@@H](C)[C@H](C)CC[C@]5(C(=O)N5CCN(C(=O)c6ccccc6-c6c7ccc(=[N+](C)C)cc-7oc7cc(N(C)C)ccc67)CC5)CC[C@]43C)[C@@]2(C)C[C@@H](OC(C)=O)[C@@H]1OC(C)=O (stereo partly drawn) (as salt: chloride) [compound 6, (2α,3β,4α)-9-[2-{[4-(2,3,23-Tris(acetyloxy)-urs-12-en-28-oyl)-Piperazinyl]Carbonyl}Phenyl]-3,6-bis(Dimethylamino)-Xanthylium Chloride] | – | – | – | – | – | –
5 | 226 to 228 °C | CCCN(CCC)c1ccc2c(-c3ccccc3C(=O)N3CCN(C(=O)[C@]45CC[C@@H](C)[C@H](C)[C@H]4C4=CC[C@@H]6[C@@]7(C)C[C@@H](OC(C)=O)[C@H](OC(C)=O)[C@@](C)(COC(C)=O)C7CC[C@@]6(C)[C@]4(C)CC5)CC3)c3ccc(=[N+](CCC)CCC)cc-3oc2c1 (stereo partly drawn) (as salt: chloride) [compound 8, (2α,3β,4α)-9-[2-{[4-(2,3,23-Tris(Acetyloxy)-urs-12-en-28-oyl)-Piperazinyl]Carbonyl}Phenyl]-3,6-Bis(Dipropylamino)-Xanthylium Chloride] | – | – | – | – | – | –
6 | 222 to 226 °C | CCCCN(CCCC)c1ccc2c(-c3ccccc3C(=O)N3CCN(C(=O)[C@]45CC[C@@H](C)[C@H](C)[C@H]4C4=CC[C@@H]6[C@@]7(C)C[C@@H](OC(C)=O)[C@H](OC(C)=O)[C@@](C)(COC(C)=O)C7CC[C@@]6(C)[C@]4(C)CC5)CC3)c3ccc(=[N+](CCCC)CCCC)cc-3oc2c1 (stereo partly drawn) (as salt: chloride) [compound 9, (2α,3β,4α)-9-[2-{[4-(2,3,23-Tris(Acetyloxy)-urs-12-en-28-oyl)-Piperazinyl]Carbonyl}Phenyl]-3,6-Bis(Dibutylamino)-Xanthylium Chloride] | – | – | – | – | – | –
